The text below walks through data of patent US6949579B2, “Aminoindazole derivatives and intermediates, preparation thereof, and pharmaceutical compositions thereof” (Aventis Pharma S.A., priority 2002, dated 2005).

One may read the melting point as the temperature of the solid-liquid transition.

The compound `CN1CCN(CC(=O)Nc2n[nH]c3cc(Cl)ccc23)CC1` gave a melting point of 165 °C.

The compound `CCCC(=O)Nc1n[nH]c2c(F)c(N3CCOCC3)c(N)cc12` [Example 113, N-(7-fluoro-5-amino-6-morpholino-1H-indazol-3-yl)butanamide] had a melting point of 180 °C.

Consider `O=C(CNCc1ccccc1)Nc1n[nH]c2cc(Cl)ccc12` [Example 80, 2-[(phenylmethyl)amino]-N-(6-chloro-1H-indazol-3-yl)acetamide], for which the melting point was found to be 156 °C.

The compound `CCCC(=O)Nc1n[nH]c2c(F)c(F)c(Br)cc12` came in with a melting point of 220 °C.

`O=C(CN1CCCC1)Nc1n[nH]c2cc(Cl)ccc12` [Example 85, N-(6-chloro-1H-indazol-3-yl)-1-pyrrolidineacetamide] had a melting point of 168 °C.

`CCCC(=O)Nc1n[nH]c2c(F)c(F)c([N+](=O)[O-])cc12` [Example 106, N-(6,7-difluoro-5-nitro-1H-indazol-3-yl)butanamide]: the melting point stood at 255 °C.

`O=C(CNC1CCCCC1)Nc1n[nH]c2cc(Cl)ccc12` [Example 79, N-(6-chloro-1H-indazol-3-yl)-2-(cyclohexylamino)acetamide] yielded a melting point of 170 °C.

`O=C(Nc1n[nH]c2ccc(NS(=O)(=O)c3cccc(F)c3)cc12)c1ccccc1` [Example 38, N-[5-[[(3-fluorophenyl)sulphonyl]amino]-1H-indazol-3-yl]benzamide] displayed a melting point of 225 °C.

`CCCC(=O)Nc1n[nH]c2ccc(C(F)(F)F)cc12` [Example 22, N-[5-(trifluoromethyl)-1H-indazol-3-yl]butanamide]: the melting point came out at 230 °C.

`CN(C)CCNCC(=O)Nc1n[nH]c2cc(Cl)ccc12` [Example 86, N-(6-chloro-1H-indazol-3-yl)-2-[[2-(dimethylamino)ethyl]amino]acetamide] gave a melting point of 104 °C.

Compound `CCCC(=O)Nc1n[nH]c2cc(Br)c(Br)cc12` [Example 70, N-[5,6-dibromo-1H-indazol-3-yl]butanamide] displayed a melting point of 250 °C.

In the case of `O=C(CN1CCCCC1)Nc1n[nH]c2c(F)c(F)ccc12` [Example 118, N-(6,7-difluoro-1H-indazol-3-yl)-1-piperidineacetamide], the melting point came to 158 °C.

In turn, `O=C(CN1CCCCC1)Nc1n[nH]c2cc(Cl)ccc12` [Example 76, N-(6-chloro-1H-indazol-3-yl)-1-piperidineacetamide] came in with a melting point of 153 °C.

Consider `CCCC(=O)Nc1n[nH]c2c(F)c(N3CCOCC3)c([N+](=O)[O-])cc12` [Example 112, N-(7-fluoro-5-nitro-6-morpholino-1H-indazol-3-yl)butanamide], for which the melting point worked out at 250 °C.
